Assay results as given in paper PMC6216040, “Repurposing of an old drug: In vitro and in vivo efficacies of buparvaquone against Echinococcus multilocularis” (International Journal for Parasitology: Drugs and Drug …, 2018).
Converted amounts (≈) assume the structure as drawn. Read-outs that look alike come from different tables or passages of the source.

Legend:
[1] = system: E. multilocularis metacestodes; test: PGI-assay: drug-induced damage on in vitro cultured metacestodes (Pathogen Box screening cascade and EC50); format: cell-based, Echinococcus multilocularis; details: for activity in the screen at 10 μM (confirmed in triplicates, >20% relative PGI release): 5 and 12 days
[2] = system: E. granulosus protoscoleces; design: method as in Bonilla et al., 2008; details: after 48 h; ref Bonilla et al., 2008; cited from earlier work
[3] = BPQ levels in orally treated mice (literature); format: in vivo; details: extrapolation to 100 mg/kg
[4] = system: mitochondrial respiration of E. multilocularis GL cells; test: Mitochondrial respiration (OCR) in permeabilized GL cells by Seahorse XFp analyzer; format: cell-based, Echinococcus multilocularis; details: 1 μM
[5] = design: method as in Smith et al., 2018; details: mice, oral, single dose of 6 mg/kg; ref Smith et al., 2018; cited from earlier work
[6] = system: human foreskin fibroblasts (HFF); test: Cytotoxicity by Alamar Blue assay in human foreskin fibroblasts; details: Homo sapiens, Fibroblast, 120 h
[7] = system: E. multilocularis metacestodes; test: BPQ treatment of E. multilocularis infected mice; format: in vivo, Balb/c mice; details: for parasite burden compared to the control: p.o. in corn oil, 5 days per week, 4 weeks, BPQ 100 mg/kg, ABZ 200 mg/kg
Protocol: Balb/c mice, 6 weeks old, were purchased from Charles River Laboratories (Sulzheim, Germany) and used for in vivo experiments when they were 8 weeks old and weighted approximately 20 g. The mice were housed in a type 3 cage containing enrichment in the form of a cardboard house and paper and woodchip bedding with a maximum of seven mice per cage. […] Food and water was provided ad libitum. Experimentally infected mice were treated with BPQ to elucidate the efficacy of the drug in vivo. To infect mice, in vitro grown E. multilocularis metacestodes (isolate […]) were washed in PBS, were mechanically destroyed by pipetting and the resulting suspension was centrifuged for 5 min at 500 g. The parasite tissue was then taken up in an equal volume of PBS. Each mouse was subsequently infected intraperitoneally (i.p.) with 200 μl of this suspension. […] infected mice were randomly distributed into 3 treatment groups (8 animals per group) with 4 animals per cage. […] Treatments of mice started 2 weeks post-infection and lasted for 4 weeks, with consecutive treatment of mice for 5 days per week, followed by an interruption of treatment for 2 days for recovery. All treatments were administered by oral gavage in a volume of 50 μl, with ABZ and BPQ being suspended in corn oil. After four weeks, all mice were anesthetized with isoflurane and subsequently euthanized by CO2. The parasitic tissue from each mouse was completely resected and weighed. The mass of the resected parasitic tissue was used for statistical analyses of the experiment. […] The significance level was set to p < 0.05. Figures were prepared in R and Adobe Illustrator 2015.1.0.

[8] = system: E. multilocularis metacestodes; test: Transmission electron microscopy of BPQ-treated metacestodes; format: cell-based, Echinococcus multilocularis
Protocol: The preparation of the samples for transmission electron microscopy (TEM) was done according to the protocol of [Hemphill and Croft (1997)]. In short, E. multilocularis metacestodes were distributed to 48-well-plates and incubated with DMSO or BPQ (30–0.04 μM) as described above. After an incubation period of 5 days, metacestodes were fixed in 2% glutaraldehyde in 0.1 M sodium cacodylate buffer; pH = 7.3 for 1 h. Next, the samples were stained for 2 h in a 2% osmium tetroxide solution cacodylate buffer, and subsequently pre-stained in a saturated uranyl acetate solution for 30 min. After washing the samples with water, they were dehydrated stepwise by washing in increasing concentrations of ethanol (30%, 50%, 70%, 90%, and three times 100%). The samples were then embedded in Epon 812 resin with three subsequent resin changes during 2 days and incubated at 65 °C overnight for polymerization. Sections for TEM (80 nm) were cut using an ultramicrotome (Reichert and Jung, Vienna, Austria), and were loaded onto formvar-carbon coated nickel grids (Plano GmbH, Marburg, Germany). The specimens were finally stained with uranyl acetate and lead citrate, and were viewed on a CM12 transmission electron microscope (Philips Electron Optics, Eindhoven, Netherlands) that operates at 80 kV.

[9] = system: E. multilocularis metacestodes; test: Vesicle viability assay by Alamar Blue (MIC); format: cell-based, Echinococcus multilocularis; details: Echinococcus multilocularis, 288 h; Alamar Blue vesicle viability assay, 12 days of incubation; read-out: E. multilocularis MIC
Protocol: The setup was the same as for PGI-assay EC50 calculations and it was performed in triplicates. […] Data was used to calculate the minimal inhibitory concentrations (MICs) of these compounds on metacestodes.

[10] = system: E. multilocularis metacestodes; test: PGI-assay under anaerobic/aerobic conditions; details: oxygen-free atmosphere, 5 days
[11] = system: Reuber rat hepatoma (RH) cells; test: Cytotoxicity by Alamar Blue assay in rat hepatoma cells; format: cell-based; details: 120 h, Alamar Blue, 5 days
[12] = 1 µM, triplicates, 5 days of incubation
[13] = 1 µM, triplicates, 12 days of incubation

CC(=O)OCC1OC([S-])C(OC(C)=O)C(OC(C)=O)C1OC(C)=O.CCP(CC)CC.[Au+] (stereo not shown) [MMV688978, Auranofin, reference compound]
activity against metacestodes at 1 μM ([1]; triplicates): not at 1 μM | PGI release, % of Tx-100 control, average, 5d [1, 12]: -2.65% | PGI release, % of Tx-100 control, average, 12d [1, 13]: -1.30% | activity in the screen at 10 μM (confirmed in triplicates, >20% relative PGI release) [1]: active | PGI release, % of the Tx-100 control, 5d ([1]; 10 µM, singlets, 5 days of incubation): 84.86% | PGI release, % of the Tx-100 control, 12d ([1]; 10 µM, singlets, 12 days of incubation): 96.09% | PGI release, % of Tx-100 control, average, 5d ([1]; confirmatory screening at 10 µM in triplicates, 5 days of incubation, values as % of Tx-100 control): 47.33% | PGI release, % of Tx-100 control, average, 12d ([1]; confirmatory screening at 10 µM in triplicates, 12 days of incubation, values as % of Tx-100 control): 61.40% | concentration killing protoscoleces [2]: 2.5 µM

CC(C)(C)[C@H]1CC[C@H](CC2=C(O)C(=O)c3ccccc3C2=O)CC1 [MMV689480, Buparvaquone]
Cmax extrapolated (assuming linear correlation) [3]: 20000 nM | oxygen consumption rate (OCR) after addition of drug ([4]; permeabilized GL cells fed with succinate): rapidly decreased | inhibition of mitochondrial electron transport chain complex ([4]; OCR restored by ascorbate/TMPD, not by succinate or glycerol 3-phosphate): selectively inhibits complex III | Cmax [5]: 1200 nM | IC50 ([6]; read-out: HFF confluent IC50): 48.6 µM | IC50 ([6]; read-out: HFF preconfluent IC50): 5.99 µM | activity against metacestodes at 1 μM ([1]; triplicates): distinct in vitro activities | PGI release, % of Tx-100 control, average, 5d [1, 12]: 1.05% | PGI release, % of Tx-100 control, average, 12d [1, 13]: 52.04% | activity in the screen at 10 μM (confirmed in triplicates, >20% relative PGI release) [1]: active | cytotoxicity at 10 µM ([1]; Echinococcus multilocularis, 120 h, 10 µM, singlets, 5 days of incubation, read-out: PGI release, % of the Tx-100 control, 5d): 27.4% | EC50 ([1]; Echinococcus multilocularis, 120 h, PGI-assay, 5 days in vitro, read-out: E. multilocularis EC50): 2.87 µM | PGI release, % of Tx-100 control at 10 µM ([1]; Echinococcus multilocularis, 120 h, confirmatory screening at 10 µM in triplicates, 5 days of incubation, values as % of Tx-100 control, read-out: PGI release, % of Tx-100 control, average, 5d): 41.2% | cytotoxicity at 10 µM ([1]; Echinococcus multilocularis, 288 h, 10 µM, singlets, 12 days of incubation, read-out: PGI release, % of the Tx-100 control, 12d): 38.6% | PGI release, % of Tx-100 control at 10 µM ([1]; Echinococcus multilocularis, 288 h, confirmatory screening at 10 µM in triplicates, 12 days of incubation, values as % of Tx-100 control, read-out: PGI release, % of Tx-100 control, average, 12d): 63.7% | IC50 ([1]; Echinococcus multilocularis, read-out: IC50 against in vitro cultured E. multilocularis metacestodes): 2.87 µM | toxicity against E. multilocularis metacestodes compared with host cells (HFF, RH) ([1]; comparison of EC50 with IC50 on mammalian cells): specific toxicity | parasite burden compared to the control [7]: failed to reduce the parasite burden | parasite burden compared to the control ([7]; listed as BPQ): no significant difference | adverse effects due to treatment ([7]; whole course of treatment, 4 weeks p.o.): None of the mice showed signs of adverse effects | ultrastructural alterations (TEM) at 1 μM ([8]; 1 μM, 5 days): membrane stacks were observed, and the GL started to separate from the LL | ultrastructural alterations (TEM) at 3 μM ([8]; 3 μM, 5 days): metacestode integrity was seriously impaired | lowest concentration with ultrastructural damage (TEM) ([8]; 5 days of BPQ): 0.3 µM | MIC [9]: 0.56 µM (≈ 0.183 µg/mL) | damage on metacestodes (PGI-assay), anaerobic, 10 μM or lower ([10]; 10 μM or lower): did not induce damage | damage on metacestodes (PGI-assay), anaerobic, 30 μM ([10]; 30 μM): active | IC50 ([11]; confluent cells, read-out: RH confluent IC50): 17.4 µM | IC50 ([11]; preconfluent cells, read-out: RH preconfluent IC50): 8.47 µM
